Series [1] concerns HepG2. The series is described as follows: Induction of Nrf2 transcription activity in human HepG2-ARE-C8 cells assessed as ARE gene expression at 20 to 100 uM after 24 hrs by cell-based luciferase reporter assay. The series is classed as functional. A general note: Reporter assays use an easily measured gene product as a stand-in for the process of interest.
The test system of series [2] is HepG2. The series is described as follows: Induction of Nrf2 transcription activity in human HepG2-ARE-C8 cells assessed as ARE gene expression at 20 to 100 uM after 12 hrs by cell-based luciferase reporter assay. In kind it is functional.
Series [3] concerns HepG2. The series is described as follows: Induction of Nrf2 transcription activity in human HepG2-ARE-C8 cells assessed as ARE gene expression after 12 to 24 hrs by cell-based luciferase reporter assay. In kind it is functional.
Series [4] has as its system HepG2. The experiment in a line: Cytotoxicity against human HepG2-ARE-C8 cells at 200 uM. The series is classed as cell-based. To be noted: hepg2, 200 µM.
For series [5], the system named is HepG2. The experiment in a line: Induction of Nrf2 transcription activity in human HepG2-ARE-C8 cells assessed as increase in ARE gene expression at 200 uM by cell-based luciferase reporter assay relative to untreated control. In kind it is functional.
The target of series [6] is Kelch-like ECH-associated protein 1 (Homo sapiens, UniProt Q14145). The experiment in a line: Inhibition of FITC-9mer Nrf2 peptide amide/Keap1 Kelch domain (unknown origin) interaction after 30 mins by fluorescence polarization assay. A general note: Polarisation of emitted light reports the rotation of a fluorescent probe.
Chain of Kelch-like ECH-associated protein 1 (Q14145 whole entry, the tested form may be a part): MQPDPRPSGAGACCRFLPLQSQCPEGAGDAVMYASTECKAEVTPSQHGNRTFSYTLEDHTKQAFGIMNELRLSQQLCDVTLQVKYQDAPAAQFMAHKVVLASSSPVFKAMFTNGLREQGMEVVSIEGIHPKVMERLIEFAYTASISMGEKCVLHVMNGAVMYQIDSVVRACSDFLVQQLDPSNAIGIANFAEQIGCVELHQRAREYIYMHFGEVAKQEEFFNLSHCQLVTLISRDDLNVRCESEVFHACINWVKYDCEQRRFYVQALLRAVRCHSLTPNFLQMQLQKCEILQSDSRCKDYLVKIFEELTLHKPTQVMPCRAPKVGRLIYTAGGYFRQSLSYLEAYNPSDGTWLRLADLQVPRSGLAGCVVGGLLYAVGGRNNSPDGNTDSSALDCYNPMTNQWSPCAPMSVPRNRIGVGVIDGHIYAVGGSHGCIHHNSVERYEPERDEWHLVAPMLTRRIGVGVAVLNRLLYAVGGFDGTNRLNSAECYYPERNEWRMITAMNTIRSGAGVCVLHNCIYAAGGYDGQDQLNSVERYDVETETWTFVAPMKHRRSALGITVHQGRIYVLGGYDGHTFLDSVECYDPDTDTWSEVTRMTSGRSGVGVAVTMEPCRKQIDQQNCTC

The text below walks through data of ChEMBL document CHEMBL3132777, “Novel proteinprotein interaction inhibitor of Nrf2Keap1 discovered by structure-based virtual screening” (Medchemcomm, 2014).

Activity calls are given as the source filed them. The calls are words filed in the database; no cut-off is given here.

As for `CC(C)(C)c1cc(O)ccc1O`, in series [1], the result was inactive. The result in series [2] was Active.

For orientation: EC50 means the concentration needed to bring the measured effect to its halfway point. High values mean a need for much substance, low ones an effect from little substance. For `O=C(N/N=C/c1ccc(-c2ccc(C(=O)O)cc2)o1)N/N=C/c1ccc(-c2ccc(C(=O)O)cc2)o1`, the results for the Activity result in series [3] and in series [4] were “Dose-dependent effect” and “Non-toxic”, respectively. In addition, the “fold change (FC)” value in series [5] was determined as 10. Further, the EC50 in series [6] was found to be 9.8 µM.
